Legend:
[1] = test system: Echinochloa oryzoides (Ard.) Fritsch.; experiment: Preemergence weed control under flooded paddy conditions, ECHORC (Watergrass (Calif.)); type: in vivo; settings: flooded paddy; further: meaning of each grade not given here
Cyperus iria = experiment: Preemergence weed control under flooded paddy conditions, CYPIR (Rice Flatsedge); type: in vivo; settings: flooded paddy; further: meaning of each grade not given here
[2] = test system: Cyperus serotinus, Rottb.; experiment: Preemergence weed control under flooded paddy conditions, CYPSE (Flatsedge); type: in vivo; further: meaning of each grade not given here
[3] = test system: Monochoria vaginalis, Presl.; experiment: Preemergence weed control under flooded paddy conditions, MOOVA (Monochoria); type: in vivo; settings: flooded paddy; further: meaning of each grade not given here
Sagittaria pygmaea, L. = experiment: Preemergence weed control under flooded paddy conditions, SAGPY (Arrowhead (Pygmaea)); type: in vivo; settings: flooded paddy; further: meaning of each grade not given here
[4] = test system: Oryza sativa, (L.) Tebonnet; experiment: Rice tolerance to post-transplant applications under flooded paddy conditions (Example 187), ORYSAT (Rice, Tebonnet); on herbicidal effect rating ORYSAT: meaning of each grade not given here
[5] = Rate 0.0320 kg/ha, preemergence, rated three to four weeks after treatment
[6] = Rate 0.0620 kg/ha, preemergence, rated three to four weeks after treatment
[7] = Rate 0.1250 kg/ha, preemergence, rated three to four weeks after treatment
[8] = Rate 0.2500 kg/ha, preemergence, rated three to four weeks after treatment
[9] = Rate 0.0320 kg/ha, rated three to four weeks after treatment
[10] = Rate 0.0620 kg/ha, rated three to four weeks after treatment
[11] = Rate 0.1250 kg/ha, rated three to four weeks after treatment
[12] = Rate 0.2500 kg/ha, rated three to four weeks after treatment
[13] = 0.0313 kg/ha, preemergence weeds, rated three to four weeks after treatment
[14] = 0.0625 kg/ha, preemergence weeds, rated three to four weeks after treatment
[15] = 0.1250 kg/ha, preemergence weeds, rated three to four weeks after treatment
[16] = 0.2500 kg/ha, preemergence weeds, rated three to four weeks after treatment
[17] = Rate 0.0320 kg/ha, preemergence, rated 3-4 weeks after treatment
[18] = Rate 0.0620 kg/ha, preemergence, rated 3-4 weeks after treatment
[19] = Rate 0.1250 kg/ha, preemergence, rated 3-4 weeks after treatment
[20] = Rate 0.2500 kg/ha, preemergence, rated 3-4 weeks after treatment
[21] = Rate 0.5000 kg/ha, preemergence, rated 3-4 weeks after treatment

## CC(c1nsc2ccc(-n3c(=O)cc(C(F)(F)F)n(C)c3=O)cc12)S(C)(=O)=O (stereo not drawn) [Example 590, 2,4(1H,3H)-Pyrimidinedione, 1-methyl-3-{3-[1-(methylsulfonyl)ethyl}-1,2-benzisothiazol-5-yl}-6-(trifluoromethyl)-]
[1]; [5]
  herbicidal effect rating, ECHORC: 3.0
[1]; [6]
  herbicidal effect rating, ECHORC: 5.0
[1]; [7]
  herbicidal effect rating, ECHORC: 6.0
[1]; [8]
  herbicidal effect rating, ECHORC: 9.0
Cyperus iria; [5]
  herbicidal effect rating, CYPIR: 2.0
Cyperus iria; [6]
  herbicidal effect rating, CYPIR: 7.0
Cyperus iria; [7]
  herbicidal effect rating, CYPIR: 7.0
Cyperus iria; [8]
  herbicidal effect rating, CYPIR: 9.0
[2]; [5]
  herbicidal effect rating, CYPSE: 0.0
[2]; [8]
  herbicidal effect rating, CYPSE: 5.0
[3]; [6]
  herbicidal effect rating, MOOVA: 7.0
[3]; [7]
  herbicidal effect rating, MOOVA: 7.0
[3]; [8]
  herbicidal effect rating, MOOVA: 9.0
Sagittaria pygmaea, L.; [5]
  herbicidal effect rating, SAGPY: 3.0
Sagittaria pygmaea, L.; [6]
  herbicidal effect rating, SAGPY: 4.0
Sagittaria pygmaea, L.; [7]
  herbicidal effect rating, SAGPY: 8.0
Sagittaria pygmaea, L.; [8]
  herbicidal effect rating, SAGPY: 9.0
[4]; [9]
  herbicidal effect rating ORYSAT: 3.0
[4]; [10]
  herbicidal effect rating ORYSAT: 5.0
[4]; [11]
  herbicidal effect rating ORYSAT: 5.0
[4]; [12]
  herbicidal effect rating ORYSAT: 6.0

## Cn1c(C(F)(F)F)cc(=O)n(-c2ccc3snc(C(=O)NS(=O)(=O)c4ccccc4)c3c2)c1=O [Example 352, 1,2-Benzisothiazole-3-carboxamide, 5-[3,6-dihydro-3-methyl-2,6-dioxo-4-(trifluoromethyl)-1(2H)-pyrimidinyl]-N-(phenylsulfonyl)-]
[1]; [5]
  herbicidal effect rating, ECHORC: 2.5
[1]; [6]
  herbicidal effect rating, ECHORC: 4.0
[1]; [7]
  herbicidal effect rating, ECHORC: 6.5
[1]; [8]
  herbicidal effect rating, ECHORC: 9.0
Cyperus iria; [5]
  herbicidal effect rating, CYPIR: 2.0
Cyperus iria; [6]
  herbicidal effect rating, CYPIR: 6.5
Cyperus iria; [7]
  herbicidal effect rating, CYPIR: 7.5
Cyperus iria; [8]
  herbicidal effect rating, CYPIR: 9.0
[2]; [5]
  herbicidal effect rating, CYPSE: 0.0
[2]; [6]
  herbicidal effect rating, CYPSE: 0.0
[2]; [7]
  herbicidal effect rating, CYPSE: 1.0
[2]; [8]
  herbicidal effect rating, CYPSE: 0.0
[3]; [5]
  herbicidal effect rating, MOOVA: 6.0
[3]; [6]
  herbicidal effect rating, MOOVA: 9.0
[3]; [7]
  herbicidal effect rating, MOOVA: 9.0
[3]; [8]
  herbicidal effect rating, MOOVA: 9.0
Sagittaria pygmaea, L.; [5]
  herbicidal effect rating, SAGPY: 2.5
Sagittaria pygmaea, L.; [6]
  herbicidal effect rating, SAGPY: 5.0
Sagittaria pygmaea, L.; [7]
  herbicidal effect rating, SAGPY: 9.0
Sagittaria pygmaea, L.; [8]
  herbicidal effect rating, SAGPY: 9.0
[4]; [9]
  herbicidal effect rating ORYSAT: 0.5
[4]; [10]
  herbicidal effect rating ORYSAT: 1.0
[4]; [11]
  herbicidal effect rating ORYSAT: 2.5
[4]; [12]
  herbicidal effect rating ORYSAT: 3.0

## CCOCc1nsc2ccc(-n3c(=O)cc(C(F)(F)F)n(C)c3=O)cc12 [Example 195, 3-[3-(Ethoxymethyl)-1,2-benzisothiazol-5-yl]-1-methyl-6-(trifluoromethyl)-2,4(1H,3H)-pyrimidinedione]
[1]; [13]
  herbicidal effect rating, ECHORC: 2.0
[1]; [14]
  herbicidal effect rating, ECHORC: 3.0
[1]; [15]
  herbicidal effect rating, ECHORC: 6.0
[1]; [16]
  herbicidal effect rating, ECHORC: 9.0
Cyperus iria; [13]
  herbicidal effect rating, CYPIR: 0.0
Cyperus iria; [14]
  herbicidal effect rating, CYPIR: 2.0
Cyperus iria; [15]
  herbicidal effect rating, CYPIR: 4.0
Cyperus iria; [16]
  herbicidal effect rating, CYPIR: 9.0
[2]; [13]
  herbicidal effect rating, CYPSE: 0.0
[2]; [14]
  herbicidal effect rating, CYPSE: 0.0
[2]; [15]
  herbicidal effect rating, CYPSE: 2.0
[2]; [16]
  herbicidal effect rating, CYPSE: 7.0
[3]; [13]
  herbicidal effect rating, MOOVA: 9.0
[3]; [14]
  herbicidal effect rating, MOOVA: 9.0
[3]; [15]
  herbicidal effect rating, MOOVA: 9.0
[3]; [16]
  herbicidal effect rating, MOOVA: 9.0
Sagittaria pygmaea, L.; [13]
  herbicidal effect rating, SAGPY: 0.0
Sagittaria pygmaea, L.; [14]
  herbicidal effect rating, SAGPY: 0.0
Sagittaria pygmaea, L.; [15]
  herbicidal effect rating, SAGPY: 1.0
Sagittaria pygmaea, L.; [16]
  herbicidal effect rating, SAGPY: 2.0
[4]; 0.0313 kg/ha, rated three to four weeks after treatment
  herbicidal effect rating, ORYSAT (rice tolerance): 6.0
[4]; 0.0625 kg/ha, rated three to four weeks after treatment
  herbicidal effect rating, ORYSAT (rice tolerance): 7.0
[4]; 0.1250 kg/ha, rated three to four weeks after treatment
  herbicidal effect rating, ORYSAT (rice tolerance): 9.0
[4]; 0.2500 kg/ha, rated three to four weeks after treatment
  herbicidal effect rating, ORYSAT (rice tolerance): 9.0

## Cc1ccc(OC(C)(C)C(=O)OC(C)C)c(-c2nsc3ccc(-n4c(=O)cc(C(F)(F)F)n(C)c4=O)cc23)c1 [Example 547, Propionic acid, 2-{{2-{5-[3,6-dihydro-3-methyl-2,6-dioxo-4-(trifluoromethyl)-1(2H)-pyrimidinyl]-1,2-benzisothiazol-3-yl}-p-tolyl}oxy}-2-methyl-, isopropyl ester]
[1]; [17]
  herbicidal effect rating, ECHORC: 5.4
[1]; [18]
  herbicidal effect rating, ECHORC: 5.4
[1]; [19]
  herbicidal effect rating, ECHORC: 5.6
[1]; [20]
  herbicidal effect rating, ECHORC: 9.0
[1]; [21]
  herbicidal effect rating, ECHORC: 9.0
Cyperus iria; [17]
  herbicidal effect rating, CYPIR: 7.0
Cyperus iria; [18]
  herbicidal effect rating, CYPIR: 7.0
Cyperus iria; [19]
  herbicidal effect rating, CYPIR: 9.0
Cyperus iria; [20]
  herbicidal effect rating, CYPIR: 9.0
Cyperus iria; [21]
  herbicidal effect rating, CYPIR: 9.0
[2]; [17]
  herbicidal effect rating, CYPSE: 6.0
[2]; [18]
  herbicidal effect rating, CYPSE: 8.0
[2]; [19]
  herbicidal effect rating, CYPSE: 8.0
[2]; [20]
  herbicidal effect rating, CYPSE: 7.0
[2]; [21]
  herbicidal effect rating, CYPSE: 0.0
[3]; [17]
  herbicidal effect rating, MOOVA: 9.0
[3]; [18]
  herbicidal effect rating, MOOVA: 9.0
[3]; [19]
  herbicidal effect rating, MOOVA: 9.0
[3]; [20]
  herbicidal effect rating, MOOVA: 9.0
[3]; [21]
  herbicidal effect rating, MOOVA: 9.0
Sagittaria pygmaea, L.; [17]
  herbicidal effect rating, SAGPY: 2.0
Sagittaria pygmaea, L.; [18]
  herbicidal effect rating, SAGPY: 4.0
Sagittaria pygmaea, L.; [19]
  herbicidal effect rating, SAGPY: 4.0
Sagittaria pygmaea, L.; [20]
  herbicidal effect rating, SAGPY: 7.0
Sagittaria pygmaea, L.; [21]
  herbicidal effect rating, SAGPY: 3.0
[4]; Rate 0.0320 kg/ha, rated 3-4 weeks after treatment
  herbicidal effect rating ORYSAT: 2.0
[4]; Rate 0.0620 kg/ha, rated 3-4 weeks after treatment
  herbicidal effect rating ORYSAT: 3.0
[4]; Rate 0.1250 kg/ha, rated 3-4 weeks after treatment
  herbicidal effect rating ORYSAT: 4.0
[4]; Rate 0.2500 kg/ha, rated 3-4 weeks after treatment
  herbicidal effect rating ORYSAT: 4.0
[4]; Rate 0.5000 kg/ha, rated 3-4 weeks after treatment
  herbicidal effect rating ORYSAT: 3.0

## COC(C)c1nsc2ccc(-n3c(=O)cc(C(F)(F)F)n(C)c3=O)cc12 (stereo not drawn) [Example 350, 2,4(1H,3H)-Pyrimidinedione, 3-[3-(1-methoxyethyl)-1,2-benzisothiazol-5-yl]-1-methyl-6-(trifluoromethyl)-]
[1]; [5]
  herbicidal effect rating, ECHORC: 6.0
[1]; [6]
  herbicidal effect rating, ECHORC: 7.5
[1]; [7]
  herbicidal effect rating, ECHORC: 8.0
[1]; [8]
  herbicidal effect rating, ECHORC: 9.0
Cyperus iria; [5]
  herbicidal effect rating, CYPIR: 4.0
Cyperus iria; [6]
  herbicidal effect rating, CYPIR: 5.0
Cyperus iria; [7]
  herbicidal effect rating, CYPIR: 9.0
Cyperus iria; [8]
  herbicidal effect rating, CYPIR: 9.0
[2]; [5]
  herbicidal effect rating, CYPSE: 7.5
[2]; [6]
  herbicidal effect rating, CYPSE: 8.5
[2]; [7]
  herbicidal effect rating, CYPSE: 8.5
[2]; [8]
  herbicidal effect rating, CYPSE: 9.0
[3]; [5]
  herbicidal effect rating, MOOVA: 9.0
[3]; [6]
  herbicidal effect rating, MOOVA: 9.0
[3]; [7]
  herbicidal effect rating, MOOVA: 9.0
[3]; [8]
  herbicidal effect rating, MOOVA: 9.0
Sagittaria pygmaea, L.; [5]
  herbicidal effect rating, SAGPY: 5.5
Sagittaria pygmaea, L.; [6]
  herbicidal effect rating, SAGPY: 7.0
Sagittaria pygmaea, L.; [7]
  herbicidal effect rating, SAGPY: 7.5
Sagittaria pygmaea, L.; [8]
  herbicidal effect rating, SAGPY: 9.0
[4]; [9]
  herbicidal effect rating ORYSAT: 9.0
[4]; [10]
  herbicidal effect rating ORYSAT: 9.0
[4]; [11]
  herbicidal effect rating ORYSAT: 9.0
[4]; [12]
  herbicidal effect rating ORYSAT: 9.0

Reference: patent EP0908457B1, “3-(1,2-benzisothiazol- and isoxazol-5-Y1)-2,4(1H,3H)-pyrimidinedione or thione and 3-(1,2-benzisothiazol- and isoxazol-5-y1)-4(3H)-pyrimidinone or thione herbicidal agents” (BASF AKTIENGESELLSCHAFT, priority 1997, dated 1999)
